Measured values as given in paper PMC9866191, “Novel 9-Benzylaminoacridine Derivatives as Dual Inhibitors of Phosphodiesterase 5 and Topoisomerase II for the Treatment of Colon Cancer” (Molecules, 2023).

Experiments:
Assay in all cases: NCI-60 one-dose screen
Assay type in all cases: cell-based
A498 = conditions: Homo sapiens; A498, Renal Cancer panel; single dose 10^−5 M; read-out: Growth inhibition %
A549/ATCC = conditions: Homo sapiens, Non-small cell lung panel, single dose 10^−5 M, read-out: Growth inhibition %
HCC-2998 = conditions: Homo sapiens; HCC-2998, Colon Cancer panel; single dose 10^−5 M; read-out: Growth inhibition %
HCT-116 = conditions: Homo sapiens, read-out: Growth inhibition %
HOP-62 = conditions: Homo sapiens; HOP-62, Non-small cell lung panel; single dose 10^−5 M; read-out: Growth inhibition %
HOP-92 = conditions: Homo sapiens; HOP-92, Non-small cell lung panel; single dose 10^−5 M; read-out: Growth inhibition %
M14 = conditions: Homo sapiens; M14, Melanoma panel; single dose 10^−5 M; read-out: Growth inhibition %
MALME-3M = conditions: Homo sapiens, Melanoma panel, single dose 10^−5 M, read-out: Growth inhibition %
MCF7 = conditions: Homo sapiens; MCF7, Breast Cancer panel; single dose 10^−5 M; read-out: Growth inhibition %
MDA-MB-468 = conditions: Homo sapiens; MDA-MB-468, Breast Cancer panel; single dose 10^−5 M; read-out: Growth inhibition %
NCI-H23 = conditions: Homo sapiens; NCI-H23, Non-small cell lung panel; single dose 10^−5 M; read-out: Growth inhibition %
NCI-H322M = conditions: Homo sapiens, Non-small cell lung panel, single dose 10^−5 M, read-out: Growth inhibition %
NCI-H460 = conditions: Homo sapiens; NCI-H460, Non-small cell lung panel; single dose 10^−5 M; read-out: Growth inhibition %
NCI-H522 = conditions: Homo sapiens; NCI-H522, Non-small cell lung panel; single dose 10^−5 M; read-out: Growth inhibition %
NCI/ADR-RES = conditions: Homo sapiens, Ovarian Cancer panel, single dose 10^−5 M, read-out: Growth inhibition %
OVCAR-4 = conditions: Homo sapiens; OVCAR-4, Ovarian Cancer panel; single dose 10^−5 M; read-out: Growth inhibition %
OVCAR-5 = conditions: Homo sapiens; OVCAR-5, Ovarian Cancer panel; single dose 10^−5 M; read-out: Growth inhibition %
PC-3 = conditions: Homo sapiens; PC-3, Prostate Cancer panel; single dose 10^−5 M; read-out: Growth inhibition %
RPMI-8226 = conditions: Homo sapiens; RPMI-8226, Leukemia panel; single dose 10^−5 M; read-out: Growth inhibition %
RXF 393 = conditions: Homo sapiens; RXF 393, Renal Cancer panel; single dose 10^−5 M; read-out: Growth inhibition %
SF-295 = conditions: Homo sapiens; SF-295, CNS Cancer panel; single dose 10^−5 M; read-out: Growth inhibition %
SF-539 = conditions: Homo sapiens; SF-539, CNS Cancer panel; single dose 10^−5 M; read-out: Growth inhibition %
SK-MEL-2 = conditions: Homo sapiens; SK-MEL-2, Melanoma panel; single dose 10^−5 M; read-out: Growth inhibition %
SK-OV-3 = conditions: Homo sapiens; SK-OV-3, Ovarian Cancer panel; single dose 10^−5 M; read-out: Growth inhibition %
SN12C = conditions: Homo sapiens, Renal Cancer panel, single dose 10^−5 M, read-out: Growth inhibition %
SNB-19 = conditions: Homo sapiens; SNB-19, CNS Cancer panel; single dose 10^−5 M; read-out: Growth inhibition %
T-47D = conditions: Homo sapiens, T47D, Breast Cancer panel, single dose 10^−5 M, read-out: Growth inhibition %
TK-10 = conditions: Homo sapiens; TK-10, Renal Cancer panel; single dose 10^−5 M; read-out: Growth inhibition %
U251 = conditions: Homo sapiens, U-251; U251, CNS Cancer panel; single dose 10^−5 M; read-out: Growth inhibition %
UACC-257 = conditions: Homo sapiens; UACC-257, Melanoma panel; single dose 10^−5 M; read-out: Growth inhibition %
UACC-62 = conditions: Homo sapiens; UACC-62, Melanoma panel; single dose 10^−5 M; read-out: Growth inhibition %
LOX IMVI = conditions: Homo sapiens, Melanoma panel, single dose 10^−5 M, read-out: Growth inhibition %

SMILES | inhibition at 10 µM (A498) | inhibition at 10 µM (A549/ATCC) | inhibition at 10 µM (HCC-2998) | inhibition at 10 µM (HCT-116) | inhibition at 10 µM (HOP-62) | inhibition at 10 µM (HOP-92) | inhibition at 10 µM (M14) | inhibition at 10 µM (MALME-3M) | inhibition at 10 µM (MCF7) | inhibition at 10 µM (MDA-MB-468) | inhibition at 10 µM (NCI-H23) | inhibition at 10 µM (NCI-H322M) | inhibition at 10 µM (NCI-H460) | inhibition at 10 µM (NCI-H522) | inhibition at 10 µM (NCI/ADR-RES) | inhibition at 10 µM (OVCAR-4) | inhibition at 10 µM (OVCAR-5) | inhibition at 10 µM (PC-3) | inhibition at 10 µM (RPMI-8226) | inhibition at 10 µM (RXF 393) | also measured
Cc1ccc2nc3ccccc3c(NCc3ccccc3)c2c1 [Compound 30, Benzyl-(2-methylacridin-9-yl)-amine] | 88.6% | 59.8% | 121% | 90.6% | 56.5% | 107% | 54.4% | 44.8% | 88.8% | 111% | 64.2% | 59.1% | 82.9% | 63% | 70.2% | 67.2% | 59.6% | 70.3% | 93.2% | 98.7% | inhibition at 10 µM (SF-295): 72%; inhibition at 10 µM (SF-539): 76.8%; inhibition at 10 µM (SK-MEL-2): 0.04%; inhibition at 10 µM (SK-OV-3): 35.7%; inhibition at 10 µM (SN12C): 74.5%; inhibition at 10 µM (SNB-19): 68.2%; inhibition at 10 µM (T-47D): 36.4%; inhibition at 10 µM (TK-10): 24.7%; inhibition at 10 µM (U251): 63%; inhibition at 10 µM (UACC-257): 43.4%; inhibition at 10 µM (UACC-62): 43.6%; inhibition at 10 µM (LOX IMVI): 90.9%
Cc1ccc2nc3ccccc3c(NCc3ccc(Cl)cc3)c2c1 [Compound 31, (4-Chlorobenzyl)-(2-methyl-acridin-9-yl)-amine] | 87% | 59.2% | 179% | 85.3% | 34.8% | 105% | 117% | 114% | 121% | 122% | 54% | 44.1% | 70.5% | 45.8% | 58% | 62.5% | 49.3% | 60.9% | 128% | 71% | inhibition at 10 µM (SF-295): 56.3%; inhibition at 10 µM (SF-539): 59.8%; inhibition at 10 µM (SK-MEL-2): -1.95%; inhibition at 10 µM (SK-OV-3): 24.8%; inhibition at 10 µM (SN12C): 60.5%; inhibition at 10 µM (SNB-19): 49.7%; inhibition at 10 µM (T-47D): 42.1%; inhibition at 10 µM (TK-10): 17.6%; inhibition at 10 µM (U251): 74.9%; inhibition at 10 µM (UACC-257): 103%; inhibition at 10 µM (UACC-62): 26%; inhibition at 10 µM (LOX IMVI): 157%
